Read-outs that look alike come from different tables or passages of the source.
Legend:
κ (KOP) [1] = molecular target: T1, κ (KOP) (Cavia porcellus, UniProt P41144); assay: κ (KOP) binding (guinea-pig cerebellum)
T1 construct: Guinea-pig cerebellum; from tissue; host or cells: guinea-pig cerebellum

5-HT2b = 5-HT2b (Homo sapiens, UniProt P41595); assay: Selectivity binding 5-HT2b
κ (KOP) [2] = molecular target: κ (KOP) (Homo sapiens, UniProt P41145); assay: κ (KOP) EC50 (method not described)
5-HT2a = 5-HT2a (Homo sapiens, UniProt P28223); assay: Selectivity binding 5-HT2a
Chain of 5-HT2a (P28223 whole entry, species assumed): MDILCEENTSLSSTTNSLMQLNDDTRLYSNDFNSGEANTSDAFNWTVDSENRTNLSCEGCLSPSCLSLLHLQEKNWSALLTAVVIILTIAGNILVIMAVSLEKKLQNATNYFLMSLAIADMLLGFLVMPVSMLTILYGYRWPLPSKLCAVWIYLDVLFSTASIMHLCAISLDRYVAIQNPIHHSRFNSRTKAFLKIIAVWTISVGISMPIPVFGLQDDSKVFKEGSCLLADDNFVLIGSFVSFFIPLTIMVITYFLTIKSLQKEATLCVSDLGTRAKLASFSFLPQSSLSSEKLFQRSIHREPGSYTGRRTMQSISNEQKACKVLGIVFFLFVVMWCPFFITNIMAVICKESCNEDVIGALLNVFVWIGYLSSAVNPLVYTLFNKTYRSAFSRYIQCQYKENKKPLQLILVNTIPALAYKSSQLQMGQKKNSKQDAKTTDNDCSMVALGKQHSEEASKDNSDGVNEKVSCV

body weight of DIO rats = assay: Effect on body weight, 28 days oral treatment of DIO rats; type: in vivo, male Sprague-Dawley rats; details: for Body weight Mean (g) Day 28: 28 days; for Basal Mean (%) Day 28: body weight % of basal; for Body weight gain Mean: day 28-initial; for Reduction % of vehicle / Reduction gram: versus vehicle at day 28
Description: (c) Effect on Body Weight and on Food Intake
The corresponding solution was used as vehicle. The stability of the solutions were checked upon storage for 14 days. Solutions were formulated twice a week and stored in freezer. The solutions were analysed for the actual concentrations and found similar between the two occasions.
Hundred (100) male Sprague-Dawley rats were raised on high fat diet at Scanbur BK AB (Sollentuna, Sweden) which upon their arrival to the Biovitrum animal care facility weighed approximately 700 g (17 weeks old). The rats were conditioned and weighed for approximately three weeks after their arrival. The rats were singly stored in standard cages during constant room conditions (temp 22+/−1° C., humidity 40-60%, 12 h light/dark cycle, lights off at 10 am). The rats received the same high fat diet (45 kcal % fat, 4.7 kcal/g; D12451) as they received at Scanbur. The diets were purchased from Research Diets, Inc., New Jersey, USA, consisted of pellets and were stored under dry and cold conditions.
The high fat fed animals which gained the highest weight were selected. This population weighed 799±60 g. The selected forty-eight (48) rats were randomized and divided into […] treatment groups in order to obtain as homogeneous groups according to body weight as possible. Each treatment group consisted of 12 rats: Group 1—vehicle, Group 2—Example 1-5 mg/kg (11 μmol/kg), Group 3—Example 1-15 mg/kg (33 μmol/kg), Group 4—Example 1-30 mg/kg (66 μmol/kg). Further nine (9) rats were allocated for measurement of compound exposure and pharmacokinetics at each dose group in parallel for the seventh and the twentyninth days. The study was started by baseline measurements for five days in order to accustom the rats to the procedure and to the experimentalists. Test compound was administered orally once a day at 9-10 am in a volume of 2.5 ml/kg i.e.an average of 2 ml per (800 g) rat. Pellets and body were weighed each day in connection with the injections. Water bottles were weighed once a week. The weighings were done with a computer-assisted Mettler Toledo PR 5002 balance. All data were transferred into an Excel template.
The food and water intake, and body weight data are calculated in gram and % of basal and expressed as mean +/−SD and/or +/−SEM.
The data of body weight and food intake was statistically analysed by two-way univariate ANOVA with repeated measurements (treatment x time) followed by one-way ANOVA for comparison between treatment groups at selected time points. Clinical chemistry measurements were analysed by one-way ANOVA followed by Dunnetts t-test for test of significance of treatment groups versus vehicle control. A difference between two groups was considered significant if P<0.05. Statistical evaluation was performed using SPSS for Windows.

5-HT1a = molecular target: T2, 5-HT1a (Homo sapiens, UniProt P08908); assay: Selectivity binding 5-HT1a
T2 sequence (P08908 1-422): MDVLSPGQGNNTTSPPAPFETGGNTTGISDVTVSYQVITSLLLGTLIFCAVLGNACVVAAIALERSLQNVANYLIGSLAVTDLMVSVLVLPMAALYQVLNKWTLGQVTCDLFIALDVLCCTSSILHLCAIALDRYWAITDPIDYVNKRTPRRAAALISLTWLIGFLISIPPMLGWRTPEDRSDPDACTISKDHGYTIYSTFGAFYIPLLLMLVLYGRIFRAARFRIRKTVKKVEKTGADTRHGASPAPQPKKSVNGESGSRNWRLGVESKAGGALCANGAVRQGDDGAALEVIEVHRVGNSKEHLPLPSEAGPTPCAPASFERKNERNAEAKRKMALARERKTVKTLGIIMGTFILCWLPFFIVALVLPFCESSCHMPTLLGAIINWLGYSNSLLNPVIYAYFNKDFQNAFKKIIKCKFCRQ

5-HT1b = 5-HT1b (Homo sapiens, UniProt P28222); assay: Selectivity binding 5-HT1b
Chain of 5-HT1b (P28222 whole entry, species assumed): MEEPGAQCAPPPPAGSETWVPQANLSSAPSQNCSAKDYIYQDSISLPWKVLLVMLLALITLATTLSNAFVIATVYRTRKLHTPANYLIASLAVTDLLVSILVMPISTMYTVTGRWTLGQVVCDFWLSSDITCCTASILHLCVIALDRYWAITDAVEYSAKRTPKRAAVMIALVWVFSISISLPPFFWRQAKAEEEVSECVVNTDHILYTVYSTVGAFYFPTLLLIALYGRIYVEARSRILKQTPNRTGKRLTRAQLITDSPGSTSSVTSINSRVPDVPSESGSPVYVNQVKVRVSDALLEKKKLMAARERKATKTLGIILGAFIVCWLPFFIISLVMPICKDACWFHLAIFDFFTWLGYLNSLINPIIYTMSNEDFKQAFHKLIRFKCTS

human 5-HT6 receptor = molecular target: T3, human 5-HT6 receptor (Homo sapiens, UniProt P50406); assay: 5-HT6 binding assay ([3H]-LSD, SPA, membranes of transfected HEK293 cells); details: at 50 nM, either/or statement of b82; read-out: % inhibition of [3H] LSD (general statement)
T3 construct: expressed in transfected cells; host or cells: HEK293
T3 sequence (P50406 whole entry): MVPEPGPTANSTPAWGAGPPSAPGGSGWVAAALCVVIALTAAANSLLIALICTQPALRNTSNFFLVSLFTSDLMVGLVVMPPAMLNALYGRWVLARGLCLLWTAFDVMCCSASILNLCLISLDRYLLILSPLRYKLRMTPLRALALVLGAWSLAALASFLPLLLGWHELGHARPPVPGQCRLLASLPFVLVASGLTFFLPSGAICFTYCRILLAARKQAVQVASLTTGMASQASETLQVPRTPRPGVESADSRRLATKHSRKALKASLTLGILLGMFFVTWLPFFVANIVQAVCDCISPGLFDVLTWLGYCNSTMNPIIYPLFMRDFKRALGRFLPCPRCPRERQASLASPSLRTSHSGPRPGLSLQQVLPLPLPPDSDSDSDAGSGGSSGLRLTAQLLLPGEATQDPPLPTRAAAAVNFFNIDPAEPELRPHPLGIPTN

5-HT3 = molecular target: T4, 5-HT3 (Homo sapiens, UniProt P46098); assay: 5-HT3 binding (human recombinant, HEK-293 cells)
T4 construct: expressed in transfected cells; host or cells: HEK-293 cells
T4 sequence (P46098 24-478): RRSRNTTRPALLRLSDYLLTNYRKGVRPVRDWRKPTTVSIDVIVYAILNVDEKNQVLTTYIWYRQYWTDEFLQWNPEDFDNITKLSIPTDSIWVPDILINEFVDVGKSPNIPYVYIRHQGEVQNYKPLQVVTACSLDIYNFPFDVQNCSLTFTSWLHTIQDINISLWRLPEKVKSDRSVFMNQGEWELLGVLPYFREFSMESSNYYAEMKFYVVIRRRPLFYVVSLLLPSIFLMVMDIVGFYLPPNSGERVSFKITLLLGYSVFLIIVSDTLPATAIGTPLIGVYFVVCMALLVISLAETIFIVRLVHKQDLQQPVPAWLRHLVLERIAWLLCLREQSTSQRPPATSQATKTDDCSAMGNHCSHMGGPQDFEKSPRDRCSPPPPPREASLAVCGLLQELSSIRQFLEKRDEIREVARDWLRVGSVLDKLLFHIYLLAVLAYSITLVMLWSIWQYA

Chain of κ (KOP) (Homo sapiens, UniProt P41145) (P41145 whole entry): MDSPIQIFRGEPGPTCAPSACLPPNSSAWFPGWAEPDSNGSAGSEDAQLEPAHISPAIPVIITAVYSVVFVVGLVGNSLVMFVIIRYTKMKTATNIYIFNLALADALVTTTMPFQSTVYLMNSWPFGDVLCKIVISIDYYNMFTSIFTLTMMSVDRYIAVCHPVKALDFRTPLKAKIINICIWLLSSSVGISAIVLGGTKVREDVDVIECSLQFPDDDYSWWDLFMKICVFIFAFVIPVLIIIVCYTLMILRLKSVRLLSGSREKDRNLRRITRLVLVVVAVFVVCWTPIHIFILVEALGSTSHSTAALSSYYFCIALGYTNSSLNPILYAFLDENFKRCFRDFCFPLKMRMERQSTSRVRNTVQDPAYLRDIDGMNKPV
T1 sequence (P41144 whole entry): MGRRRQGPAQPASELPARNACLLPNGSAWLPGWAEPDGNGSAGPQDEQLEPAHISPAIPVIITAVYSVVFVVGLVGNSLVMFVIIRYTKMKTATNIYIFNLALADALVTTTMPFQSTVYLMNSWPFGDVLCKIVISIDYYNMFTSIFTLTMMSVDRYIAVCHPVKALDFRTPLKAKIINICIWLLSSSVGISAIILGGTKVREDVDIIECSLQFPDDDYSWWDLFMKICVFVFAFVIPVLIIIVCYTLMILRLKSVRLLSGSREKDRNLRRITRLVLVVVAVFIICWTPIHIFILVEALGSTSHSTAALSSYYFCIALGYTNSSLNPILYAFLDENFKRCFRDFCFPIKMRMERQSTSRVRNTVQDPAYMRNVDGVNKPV
Chain of 5-HT2b (P41595 whole entry, species assumed): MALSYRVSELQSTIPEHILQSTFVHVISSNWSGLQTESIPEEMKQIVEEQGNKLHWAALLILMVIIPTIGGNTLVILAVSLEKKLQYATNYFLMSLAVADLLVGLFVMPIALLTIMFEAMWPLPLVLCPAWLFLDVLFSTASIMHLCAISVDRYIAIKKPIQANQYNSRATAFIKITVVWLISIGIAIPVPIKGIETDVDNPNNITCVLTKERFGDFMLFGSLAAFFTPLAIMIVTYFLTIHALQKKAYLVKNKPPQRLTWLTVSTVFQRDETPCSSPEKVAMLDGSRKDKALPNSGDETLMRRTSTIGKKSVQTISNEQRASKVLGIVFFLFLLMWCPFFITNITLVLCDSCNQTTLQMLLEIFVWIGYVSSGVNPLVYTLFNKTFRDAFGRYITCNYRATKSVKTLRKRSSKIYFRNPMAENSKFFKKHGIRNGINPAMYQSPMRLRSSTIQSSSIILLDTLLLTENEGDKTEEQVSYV

## COc1ccc(C)cc1NS(=O)(=O)c1cc(OC2CCNCC2)c2occc2c1 [Example 1]
κ (KOP) [1]
  Ki: 120 nM
5-HT2b
  Ki: 440 nM
κ (KOP) [2]
  EC50: 3780 nM
5-HT2a; figure in parentheses after the bound, read-out: 5-HT2a Selectivity Binding (Ki), value in parentheses
  Ki: 5600 nM
5-HT2a; read-out: 5-HT2a Selectivity Binding (Ki)
  Ki: > 1000 nM
Body weight of DIO rats; 5 mg/kg p.o. once a day
  Body weight Mean (g) Day 28: 845 g
Body weight of DIO rats; 5 mg/kg p.o.
  Basal Mean (%) Day 28: 103.5%
  Body weight gain Mean: 29 g
  Reduction % of vehicle: 3.9%
  Reduction gram: −31 gram
Body weight of DIO rats; 15 mg/kg p.o. once a day
  Body weight Mean (g) Day 28: 834 g
Body weight of DIO rats; 15 mg/kg p.o.
  Basal Mean (%) Day 28: 103.7%
  Body weight gain Mean: 30 g
  Reduction % of vehicle: 3.7%
  Reduction gram: −30 gram
Body weight of DIO rats; 30 mg/kg p.o. once a day
  Body weight Mean (g) Day 28: 810 g
Body weight of DIO rats; 30 mg/kg p.o.
  Basal Mean (%) Day 28: 100.6%
  Body weight gain Mean: 4 g
  Reduction % of vehicle: 6.9%
  Reduction gram: −57 gram
Body weight of DIO rats; 5, 15, 30 mg/kg p.o., four weeks, repeated ANOVA P<0.001
  body weight throughout the whole treatment period: decreased significantly
Body weight of DIO rats; third dose of the sentence, printed as 15 mg/kg
  reduction in body weight: 6.9%
5-HT1a; figure in parentheses after the bound, read-out: 5-HT1a Selectivity Binding (Ki), value in parentheses
  Ki: 1400 nM
5-HT1a; read-out: 5-HT1a Selectivity Binding (Ki)
  Ki: > 1000 nM
5-HT1b; figure in parentheses after the bound, read-out: 5-HT1b Selectivity Binding (Ki), value in parentheses
  Ki: 3600 nM
5-HT1b; read-out: 5-HT1b Selectivity Binding (Ki)
  Ki: > 1000 nM
Human 5-HT6 receptor
  inhibition at 0.05 µM: ≥ 20%
5-HT3
  Ki: 190 nM
